The source of these data is US7173004B2, “Macrocyclic isoquinoline peptide inhibitors of hepatitis C virus” (Bristol-Myers Squibb Company, priority 2003, dated 2007).

Data set [1] concerns HCV replicon. In words: Two-drug combination matrix studies in HCV replicon system, Universal Response Surface Approach (URSA). Particulars: Hepatitis C virus, matrix study with NS5A inhibitor, URSA estimate (Table 10). It counts as cell-based. On the procedure: In addition to the combination index approach, above, the Universal Response Surface Approach (URSA) was also used to assess the antiviral effects of combinations of NS5A or NS5B inhibitors with the NS3 protease inhibitor. The experiments were conducted in a matrixed format with 8 concentrations of NS3 protease inhibitor crossed against 10 concentrations of NS5A or NS5B inhibitor on each of three plates. 200× stock solutions of each inhibitor concentration were prepared by 3-fold dilution in DMSO. Effects on replication were assessed in the HCV replicon system as described above. The data was analyzed using the URSA as described in Greco, Park and Rustum (Greco, Park, Sook, and Rustum (1990) Application of a New Approach for the Quantitation of Drug Synergism to the Combination of cis-Diamminedichloroplatinum and 1-β-D-Arabinofuranosylcytosine, Cancer Research, 50, 5318–5327). The interaction of the two drugs was assessed by using non-linear regression with a bisection algorithm. Seven parameters were estimated. These include the minimal response or response in the absence of drug, the maximal response or response in the presence of infinite drug, EC50's for the two drugs, slope parameters for the two drugs, and the drug interaction parameter α which provides the assessment of synergism, antagonism or additivity. Additivity is implied when α is equal to zero, synergy if the interaction parameter is larger than zero, and antagonism when the interaction parameter is less than zero. The confidence interval for the interaction parameter is also presented. This interval is used to test for departure from additivity by comparing the bounds to zero—a lower bound of the interval greater than zero indicates synergy, an upper bound of less than zero indicates antagonism, and a value of zero contained in the interval indicates additivity.

The subject of data set [2] is HCV replicon. In words: Three-drug combination studies in HCV replicon system, combination index. The conditions noted are these: mono-therapy in the three-drug combination experiment, HCV replicon, read-out: NS5A inhibitor EC50. It counts as cell-based. How it is done: […] an NS5B replicase inhibitor (compound 2006; WO 03/010141), were tested in 2-drug combinations with the macrocyclic HCV NS3 protease inhibitor compound 28. In addition, compound 28 was also tested in 3-drug combinations with the NS5A and NS5B inhibitors.
For the experiments shown in Tables 8 and 9, inhibitors were tested at eleven concentrations each. 200× stock solutions of each inhibitor concentration were prepared by 2- or 3-fold dilution in DMSO prior to addition to cells/media. The drugs were tested as monotherapies and in combination with the NS3 protease inhibitor at various concentration ratios. Cells were exposed to compounds for 4 days and the amount of HCV inhibition was then determined using the FRET assay. The potential cytotoxicities of these combined agents were also analyzed in parallel by Alamar Blue staining. […] The degree of antagonism, additivity, or synergy was determined over a range of drug concentrations, and combination response curves were fit to assess the antiviral effects of the drug treatment combinations. The concentration ratios were analyzed using the method of Chou (Chou, Ting-Chao, and Rideout (Editors), (1991) Synergism and Antagonism in Chemotherapy, P. 61–101, Academic Press, New York). Tables 8 and 9 report the estimated EC50 values for the compounds tested, as well as the combination indices (CI). All estimates were computed using SAS Proc NLIN, and a two-parameter logistic. All combination indices were tested for departure from additivity using isobologram methods. Asymptotic confidence intervals were also calculated for each of the combination indices. These intervals are used to test for departure from additivity by comparing the bounds to one—a lower bound of the interval greater than 1 indicates antagonism, an upper bound of less than 1 indicates synergism, and a value of 1 contained in the interval indicates additivity.
Compound 28 was also tested in 3-drug combination experiments with the NS5A inhibitor and the NS5B inhibitor (Table 12). The starting concentrations for the mono-therapies consisted of a 0.667 μM solution of the NS5A inhibitor, a 0.3 μM solution of compound 28, and a 2.5 μM solution of the NS5B inhibitor. The starting concentration for the triple combination contained a mixture of ⅓ of each of the above concentrations. Dose response curves for all three mono-therapies and the triple combination therapy were obtained using 3-fold dilutions, and data analysis was carried out as described above for combination index experiments.
(Replicon systems follow genome replication, usually without infectious particles.)

Another data set concerns HCV. Particulars: cited from earlier work.
The target of data set [3] is T1, HCV NS3/4A protease complex, BMS strain (genotype 1a) (UniProt P27958, C1454S/C1711G, species not given/STRAIN_BMS).
T1 construct: b1001: DNA encoding the recombinant HCV NS3/4A protease complex (amino acids 1027 to 1711) ... a three-lysine solubilizing tail was added at the 3′-end of the NS4A coding region; fused on or other part: Three-lysine solubilising tail at the C-terminus of NS4A; A His tag is implied by the pET21b vector and Ni-NTA purification
In words: Recombinant HCV NS3/4A protease complex FRET peptide assay, BMS strain. The data set is classed as biochemical. Particulars: NS3/4A BMS Strain; activity range classes. From the text: Recombinant HCV NS3/4A Protease Complex FRET Peptide Assay
The purpose of this in vitro assay was to measure the inhibition of HCV NS3 protease complexes, derived from the BMS strain, H77C strain or J416S strain, as described below, by compounds of the present invention. This assay provides an indication of how effective compounds of the present invention would be in inhibiting HCV proteolytic activity.
Serum from an HCV-infected patient was obtained from Dr. T. Wright, San Francisco Hospital. An engineered full-length cDNA (compliment deoxyribonucleic acid) template of the HCV genome (BMS strain) was constructed from DNA fragments obtained by reverse transcription-PCR (RT-PCR) of serum RNA (ribonucleic acid) and using primers selected on the basis of homology between other genotype 1a strains. From the determination of the entire genome sequence, a genotype 1a was assigned to the HCV isolate according to the classification of Simmonds et al. (See P Simmonds, K A Rose, S Graham, S W Chan, F McOmish, B C Dow, E A Follett, P L Yap and H Marsden, J. Clin. Microbiol., 31(6), 1493–1503 (1993)). […] The infectious clones, H77C (1a genotype) and J4L6S (1b genotype) were obtained from R. Purcell (NIH) and the sequences are published in Genbank (AAB67036, see Yanagi, M., Purcell, R. H., Emerson, S. U. and Bukh, J. Proc. Natl. Acad. Sci. U.S.A. 94(16), 8738–8743 (1997); AF054247, see Yanagi, M., St Claire, M., Shapiro, M., Emerson, S. U., Purcell, R. H. and Bukh, J, Virology 244 (1), 161–172. (1998)).
The H77C and J4L6S strains were used for production of recombinant NS3/4A protease complexes. DNA encoding the recombinant HCV NS3/4A protease complex (amino acids 1027 to 1711) for these strains were manipulated as described by P. Gallinari et al. (see Gallinari P, Paolini C, Brennan D, Nardi C, Steinkuhler C, De Francesco R. Biochemistry. 38(17):5620–32, (1999)). Briefly, a three-lysine solubilizing tail was added at the 3′-end of the NS4A coding region. The cysteine in the P1 position of the NS4A-NS4B cleavage site (amino acid 1711) was changed to a glycine to avoid the proteolytic cleavage of the lysine tag. Furthermore, a cysteine to serine mutation was introduced by PCR at amino acid position 1454 to prevent the autolytic cleavage in the NS3 helicase domain. The variant DNA fragment was cloned in the pET21b bacterial expression vector (Novagen) and the NS3/4A complex was expressed in Escherichia coli strain BL21 (DE3) (Invitrogen) following the protocol described by P. Gallinari et al. (see Gallinari P, Brennan D, Nardi C, Brunetti M, Tomei L, Steinkuhler C, De Francesco R., J. Virol. 72(8):6758–69 (1998)) with modifications. Briefly, NS3/4A expression was induced with 0.5 mM Isopropyl β-D-1-thiogalactopyranoside (IPTG) for 22 hr at 20° C. A typical fermentation (10 L) yielded approximately 80 g of wet cell paste. The cells were resuspended in lysis buffer (10 mL/g) consisting of 25 mM N-(2-Hydroxyethyl)piperazine-N′-(2-Ethane Sulfonic acid) (HEPES), pH7.5, 20% glycerol, 500 mM Sodium Chloride (NaCl), 0.5% Triton-X100, 1 microgram/milliliter (“μg/mL”) lysozyme, 5 mM Magnesium Chloride (MgCl2), 1 ug/ml DnaseI, 5 mM β-Mercaptoethanol (βME), Protease inhibitor—Ethylenediamine Tetraacetic acid (EDTA) free (Roche), homogenized and incubated for 20 mins at 4° C. The homogenate was sonicated and clarified by ultra-centrifugation at 235000 g for 1 hr at 4° C. Imidazole was added to the supernatant to a final concentration of 15 mM and the pH adjusted to 8.0. The crude protein extract was loaded on a Nickel-Nitrilotriacetic acid (Ni-NTA) column pre-equilibrated with buffer B (25 mM HEPES, pH8.0, 20% glycerol, 500 mM NaCl, 0.5% Triton-X100, 15 mM imidazole, 5 mM βME). The sample was loaded at a flow rate of 1 mL/min. The column was washed with 15 column volumes of buffer C (same as buffer B except with 0.2% Triton-X100). The protein was eluted with 5 column volumes of buffer D (same as buffer C except with 200 mM Imidazole). […]

The conditions of data set [4]: from C=CCCCSC[C@@H](NC(=O)OC(C)(C)C)C(=O)N1C[C@H](Oc2nccc3cc(OC)ccc23)C[C@H]1C(=O)N[C@]1(C(=O)OCC)C[C@H]1C=C; rcm bond; Grubbs II (tricyclohexylphosphine[1,3-bis(2,4,6-trimethylphenyl)-4,5-dihydroimidazol-2-ylidene][benzylidene]ruthenium(IV) dichloride); 1,2-dichloroethane; 3.48 mM; 83.0 °C; 16.0 h.

By EC50 is commonly meant the concentration at which the effect is half-maximal. As to `O=C(Nc1ccc(C2S/C(=N\c3ccc(N4CCOCC4)cc3)N(Cc3cccnc3)C2=O)cc1)[C@@H]1CCCN1C(=O)CCc1ccccc1` (stereo partly shown) [NS5A inhibitor, reference compound], the results for the EC50 in the data set on HCV replicon [1], in the data set with HCV replicon [2] (Hepatitis C virus) and in the data set on HCV replicon [2] were 8 nM, 5 nM and 9 nM, respectively.

As to “alpha-interferon and ribavirin [reference compound]”, in the data set with HCV (HCV patients), the sustained efficacy is reported as 40 % of patients.

Usually IC50 stands for the midpoint of a concentration-inhibition curve. `COc1ccc2c(O[C@@H]3C[C@H]4C(=O)N[C@]5(C(=O)O)C[C@H]5/C=C\COCC[C@H](NC(=O)OC(C)(C)C)C(=O)N4C3)nccc2c1` [Compound 140]: in data set [3], the IC50 was in the range of 5000 to 50000 nM.

Take `CCOC(=O)[C@@]12C[C@H]1C=CCCCSC[C@@H](NC(=O)OC(C)(C)C)C(=O)N1C[C@H](Oc3nccc4cc(OC)ccc34)C[C@H]1C(=O)N2`: the ring closure, yield of all isomers in data set [4] is 73%.

Take pegylated alpha-interferon: in the data set on HCV (clinical results, monotherapy), the “efficacy as monotherapy compared with unmodified alpha-interferon” value is “superior to unmodified alpha-interferon”.
